From patent US7649004B2, “Pyridine derivatives” (Pfizer, Inc., priority 2004, dated 2010)

Molecular target: T1, Human Nav1.8 (Homo sapiens, UniProt Q9Y5Y9)
T1 construct: expressed in transfected cells; host or cells: HEK293
Assay: VIPR assay for Nav1.8 compounds (FRET membrane potential, deltamethrin-opened channels)
Type: cell-based
Settings: HEK293 cells expressing human Nav1.8; deltamethrin as opener; read-out: affinity for the NaV1.8 channel (binding affinity; IC50 from VIPR assay)
Source text: The ability of the pyridine derivatives of the formula (I) to inhibit the NaV1.8 channel may be measured using the assay described below.
VIPR Assay for Nav1.8 Compounds
This screen is used to determine the effects of compounds on tetrodotoxin-resistant (TTX-R) sodium channels in Human Nav1.8 (HEK293) expressing cell line, utilising the technology of Aurora's fluorescent Voltage/Ion Probe Reader (VIPR). This experiment is based on FRET (Fluorescence Resonance Energy Transfer) and uses two fluorescent molecules. The first molecule, Oxonol (DiSBAC2(3)), is a highly fluorescent, negatively charged, hydrophobic ion that “senses” the trans-membrane electrical potential. […] The voltage dependent redistribution is transduced into a ratiometric fluorescent readout via a second fluorescent molecule (Coumarin (CC2-DMPE)) that binds specifically to one face of the plasma membrane and functions as a FRET partner to the mobile voltage-sensing ion. […]
2. […] Once the incubation is complete, the cells are ready to be assayed using the VIPR for sodium addback membrane potential.
The data was analyzed and reported as normalised ratios of intensities measured in the 460 nm and 580 nm channels. […]
Rf/Ri ratio values are plotted using Excel Labstats (curve fit) or analysed via ECADA to determine an IC50 value for each compound.

T1 sequence (Q9Y5Y9 whole entry): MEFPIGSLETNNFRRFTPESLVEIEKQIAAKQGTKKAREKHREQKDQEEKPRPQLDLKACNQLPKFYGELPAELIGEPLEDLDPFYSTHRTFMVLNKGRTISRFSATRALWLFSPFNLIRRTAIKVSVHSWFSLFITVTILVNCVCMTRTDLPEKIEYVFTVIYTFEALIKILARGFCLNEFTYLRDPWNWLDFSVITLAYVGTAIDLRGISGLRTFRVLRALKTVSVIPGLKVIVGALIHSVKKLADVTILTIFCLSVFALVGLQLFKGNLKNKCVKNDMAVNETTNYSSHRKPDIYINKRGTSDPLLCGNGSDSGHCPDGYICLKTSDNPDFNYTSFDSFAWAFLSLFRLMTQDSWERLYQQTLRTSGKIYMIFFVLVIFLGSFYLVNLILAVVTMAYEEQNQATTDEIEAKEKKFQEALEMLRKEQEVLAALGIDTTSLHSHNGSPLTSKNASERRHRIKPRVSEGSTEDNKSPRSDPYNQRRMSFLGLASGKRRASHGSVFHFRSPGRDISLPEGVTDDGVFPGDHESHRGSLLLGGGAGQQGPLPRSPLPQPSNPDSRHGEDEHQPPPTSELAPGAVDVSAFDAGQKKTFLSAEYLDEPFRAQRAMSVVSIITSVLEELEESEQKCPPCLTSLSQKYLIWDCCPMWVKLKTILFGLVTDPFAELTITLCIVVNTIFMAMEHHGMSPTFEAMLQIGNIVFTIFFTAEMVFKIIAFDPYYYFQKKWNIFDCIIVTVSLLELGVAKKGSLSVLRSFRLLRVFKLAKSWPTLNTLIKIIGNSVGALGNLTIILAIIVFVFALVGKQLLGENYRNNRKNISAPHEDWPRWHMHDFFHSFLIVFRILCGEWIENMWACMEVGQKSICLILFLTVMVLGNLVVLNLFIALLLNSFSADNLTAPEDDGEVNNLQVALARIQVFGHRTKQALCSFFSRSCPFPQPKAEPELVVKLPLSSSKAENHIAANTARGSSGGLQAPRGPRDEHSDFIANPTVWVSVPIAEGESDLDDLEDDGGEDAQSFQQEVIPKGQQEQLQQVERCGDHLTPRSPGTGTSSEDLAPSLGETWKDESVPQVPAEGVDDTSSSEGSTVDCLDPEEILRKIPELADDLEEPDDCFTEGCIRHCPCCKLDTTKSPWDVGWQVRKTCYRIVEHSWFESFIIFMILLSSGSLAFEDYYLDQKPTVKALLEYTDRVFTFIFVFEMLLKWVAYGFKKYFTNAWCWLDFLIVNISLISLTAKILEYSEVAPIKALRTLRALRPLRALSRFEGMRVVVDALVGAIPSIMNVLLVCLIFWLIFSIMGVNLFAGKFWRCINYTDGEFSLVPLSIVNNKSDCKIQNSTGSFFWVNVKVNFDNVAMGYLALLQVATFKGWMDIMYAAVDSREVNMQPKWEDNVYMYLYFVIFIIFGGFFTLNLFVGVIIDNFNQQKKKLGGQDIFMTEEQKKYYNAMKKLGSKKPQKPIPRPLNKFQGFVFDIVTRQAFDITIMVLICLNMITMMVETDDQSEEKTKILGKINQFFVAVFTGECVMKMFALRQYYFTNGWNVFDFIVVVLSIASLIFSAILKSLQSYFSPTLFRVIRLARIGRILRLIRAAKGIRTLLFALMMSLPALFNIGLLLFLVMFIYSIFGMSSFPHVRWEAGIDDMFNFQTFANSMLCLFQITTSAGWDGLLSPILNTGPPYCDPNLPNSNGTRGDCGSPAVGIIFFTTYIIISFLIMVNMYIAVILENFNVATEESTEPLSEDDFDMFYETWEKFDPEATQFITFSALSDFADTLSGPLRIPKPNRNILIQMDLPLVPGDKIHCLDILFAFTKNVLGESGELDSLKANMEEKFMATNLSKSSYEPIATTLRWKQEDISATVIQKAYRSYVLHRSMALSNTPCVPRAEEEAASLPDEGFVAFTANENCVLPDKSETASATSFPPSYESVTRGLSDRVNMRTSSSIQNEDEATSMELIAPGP

- IC50: 2040 nM
Structure (SMILES): CNC(=O)c1ccc(-c2cc(Cl)cc(Cl)c2Cl)c(N)n1 [Example 1, 6-Amino-5-(2,3,5-trichloro-phenyl)-pyridine-2-carboxylic acid methylamide]
